Assay: in vitro
Conditions: human, hela cells

With `O=C(O)c1n[s+][n-]c1-c1cc([N+](=O)[O-])cc([N+](=O)[O-])c1O` [CBK261584] the viability at 28.5 h, 10 µM was 97.2%.

Same assay, conditions: human, hela cells, % viability

Going from `CCc1nc2ccc(C(=O)N3CCN(S(=O)(=O)CC)CC3)cn2c1N(C)CC` [CBK145520] to `CCOC(=O)C1CC1CN1CCCN(S(=O)(=O)c2ccc(C(=O)c3ccccc3)cc2)CC1` (centres unmarked) [CBK063028], the viability at 28.5 h, 10 µM rises from 85.1% to 88.6%.

First: O=[N+]([O-])c1ccc(-c2ccc(/C=N/Nc3nnc4c(n3)[nH]c3ccccc34)o2)cc1 [CBK262029]
Second: O=C(NC(=S)Nc1cccc(-c2nc3ncccc3o2)c1)c1ccc(-c2cccc([N+](=O)[O-])c2)o1 [CBK267870]
The viability at 28.5 h, 10 µM of the first is higher: 90.4% for the first, 83.4% for the second.

Going from `Cc1c(C(=O)N2CCCCC2CN2CCOCC2)[nH]c2c(F)cccc12` (centres unmarked) [CBK306751] to `Cc1cc(=O)n2ccc(CN3CCOCC3)c(O)c2n1` [CBK262899C], the viability at 28.5 h, 10 µM rises from 105% to 114%.

`Cc1ccc(Nc2cc(-c3cccc4oc5ccccc5c34)ncn2)cc1NS(C)(=O)=O` [CBK091150] and `COc1cc2c(cc1NC(=O)CN(C)S(=O)(=O)c1ccc(Cl)cc1)oc1ccccc12` [CBK267404] are the same in viability at 28.5 h, 10 µM: 93.6% for the first, 93.6% for the second.

Compared with `N#C/C(=C\c1ccc2noc(-c3ccccc3)c2c1)c1nc(-c2cc3ccccc3oc2=O)cs1` [CBK267269], `O=C(Nc1cccc(-c2noc(Cc3ccccc3)n2)c1)c1cccs1` [CBK270244] is higher in viability at 28.5 h, 10 µM: 90.2% for the first, 101% for the second.

Going from `Cc1ccc2nc(CNC(=O)N(C)CCc3c(C)n[nH]c3C)cn2c1` [CBK306984] to `CCn1c(C)cc2cc(NC(=O)c3cnc(C)nc3C)ccc21` [CBK283260], the viability at 28.5 h, 10 µM rises from 81.1% to 104%.

Going from `CCCc1cc(O)nc(SCCCCn2ccnc2C)n1` [CBK306359] to `CCCn1nc(C)c(-c2cncn2CCc2c(C)nn(C)c2C)c1C` [CBK281475], the viability at 28.5 h, 10 µM falls from 107% to 91.5%.

Compared with `CC(=O)N1CCc2c([nH]c3ccccc23)C1CCN(C)Cc1ccc(F)cc1` (centres unmarked) [CBK066969], `O=C1NCCN(C(=O)COc2ccc(F)cc2F)C1Cc1ccccc1-c1cccnc1` (centres unmarked) [CBK285832] is higher in viability at 28.5 h, 10 µM: 93.9% for the first, 95.6% for the second.

Compared with `COc1ccc(-n2c(=O)[nH]cc(C(=O)N3CCc4ccccc43)c2=O)cc1OC` [CBK287555], `O=c1c2ccccc2nc2n1CCN(Cc1ccc(F)c(F)c1)CC2` [CBK284816] is lower in viability at 28.5 h, 10 µM: 105% for the first, 96.6% for the second.

First: OCCc1ccc(Nc2cc(-c3ccc4c(c3)OCO4)ncn2)cc1 [CBK090767]
Second: CC(C)(C)OC(=O)NCCNC(=O)c1cccnc1NCc1ccc2c(c1)OCO2 [CBK160117]
The viability at 28.5 h, 10 µM of the first is lower: 97.8% for the first, 104% for the second.

Going from `C#CCNC(=O)CC[C@H]1CNC(=O)[C@@H]2[C@@H](CCN2Cc2nc3ccccc3n2C)N1C` [CBK289018] to `CCOCCCNc1c2c(c(C#N)c3nc4ccccc4n13)CCC2` [CBK263151], the viability at 28.5 h, 10 µM falls from 102% to 93.5%.

Going from `COc1cncc(-c2cccc(N3CCN(CCN(C)C)CC3)n2)c1` [CBK037024] to `COCCNc1nc(-c2cncc(OC)c2)cnc1N` [CBK063606], the viability at 28.5 h, 10 µM rises from 97.4% to 103%.

Going from `Cc1c(Cc2ccccc2)c(N2CCN(Cc3ccccc3)CC2)n2c(nc3ccccc32)c1C#N` [CBK263150] to `O=C(NCCc1c[nH]c2ccccc12)N1CCN(Cc2ccccc2)CC1` [CBK155646], the viability at 28.5 h, 10 µM falls from 94.9% to 78.9%.

Going from `O=C1CCC(=O)N1CCOc1nccnc1OC1CCN(CCc2ccccn2)CC1` [CBK084360] to `Cn1cc(NC(=O)N2CCCN(Cc3ccccn3)CC2)nn1` [CBK307034], the viability at 28.5 h, 10 µM falls from 99.5% to 86.8%.

Going from `O=C(O)[C@H](Cc1ccccc1)Nc1ncnc2[nH]cnc12` [CBK287090] to `C[C@H](Nc1nccnc1-c1ccsc1)c1ccccc1` [CBK088716], the viability at 28.5 h, 10 µM rises from 87% to 94.9%.

First: Cc1ccc(-n2c(C)cc(/C=N/NC(=O)c3ccc(CN4CCOCC4)cc3)c2C)cc1 [CBK263324]
Second: CN(C)c1cccc(-c2ccc(Nc3ccc(N4CCOCC4)cc3)nc2)c1 [CBK037735]
The viability at 28.5 h, 10 µM of the first is lower: 86.8% for the first, 92.2% for the second.

Going from `c1ccc2c(c1)n[n+]1c3ccccc3[n-]n21` [CBK260974] to `O=C(NC(C(=O)c1ccccc1)N1CCCCC1)c1ccccc1` (centres unmarked) [CBK261035], the viability at 28.5 h, 10 µM rises from 85.7% to 123%.

First: O=C(Nc1ccc2[nH]c(=O)[nH]c2c1)c1ccc2[nH]ccc2c1 [CBK149083]
Second: CCOC(=O)c1cccnc1-c1ccc2[nH]ccc2c1 [CBK149238]
The viability at 28.5 h, 10 µM of the first is lower: 97.5% for the first, 99.7% for the second.

First: Cn1ccc(C2=C(N)C(C#N)C3=C(CC(C)(C)CC3=O)O2)c1 (centres unmarked) [CBK022168]
Second: Cc1nn(C)c(C)c1NC(=O)c1ncoc1-c1ccc(F)cc1 [CBK282359]
The viability at 28.5 h, 10 µM of the first is higher: 109% for the first, 87.7% for the second.

First: CC1=CC(C)C(=S)NC(C)=C1 (centres unmarked) [CBK022735]
Second: CC(=O)C1=C(C)NC(SCC(=O)c2ccc(C)cc2)=C(C#N)C1c1ccco1 (centres unmarked) [CBK262623]
The viability at 28.5 h, 10 µM of the first is lower: 91% for the first, 109% for the second.

First: Cn1ccnc1C1(O)CCN(C(=O)Cc2ccccc2F)CC1 [CBK283585]
Second: CC(=O)N1CCC[C@H]2NC(=O)CNC(=O)C3(C/C=C/C[C@H]21)CCN(Cc1ccccc1O)CC3 [CBK292054]
The viability at 28.5 h, 10 µM of the first is lower: 97.6% for the first, 99.3% for the second.

Going from `O=C(O)c1ccc2c(c1)C(=O)N(Cc1cccc(CN3C(=O)c4ccc(C(=O)O)cc4C3=O)c1)C2=O` [CBK265556] to `CS(=O)(=O)c1ccc(-c2c[nH]c([C@@H]3COCCN3Cc3ccc(C(=O)O)cc3)n2)cc1` [CBK289306], the viability at 28.5 h, 10 µM falls from 113% to 97.3%.

First: NC(=O)c1c(NC(=O)c2nc3ccccc3s2)sc2c1CCCCC2 [CBK287566]
Second: O=C(Nc1ccncc1)c1c(O)c2ccccc2[nH]c1=O [CBK288017]
The viability at 28.5 h, 10 µM of the first is lower: 96.5% for the first, 112% for the second.

Going from `Fc1ccc(-c2cncc(NCCc3ccncc3)n2)c(F)c1` [CBK065810] to `O=S(=O)(Nc1cccc2cc[nH]c12)c1ccc(F)cc1F` [CBK153586], the viability at 28.5 h, 10 µM falls from 104% to 85.3%.

First: O=C(Nc1ccc(I)cc1C(=O)NCCN1CCOCC1)c1ccc(Cl)cc1Cl [CBK266157]
Second: CN(C)S(=O)(=O)c1cc(C(=O)Nc2ccc(O)cc2)c(Cl)cc1Cl [CBK266767]
The viability at 28.5 h, 10 µM of the first is higher: 100% for the first, 95.4% for the second.

Going from `CC(=O)Nc1ccc(-c2cccc(COC3CCN(C(=O)Cc4ccc(C#N)cc4)CC3)c2)cc1` [CBK149495] to `O=C(O)c1ccc(S(=O)(=O)Nc2ccc(OC3CCCC3)cc2)cc1` [CBK296658], the viability at 28.5 h, 10 µM rises from 101% to 110%.

Compared with `NC(=S)N/N=C/c1c[nH]nc1-c1ccccc1` [CBK009705], `CCOC(=O)c1sc(NS(=O)(=O)Cc2ccccc2)nc1C` [CBK047448] is higher in viability at 28.5 h, 10 µM: 96.5% for the first, 105% for the second.

First: CSc1nc(NC(=O)C(C)c2ccccc2)cc(N2CCNCC2)n1 (centres unmarked) [CBK026742T]
Second: O=C1CC(/C=C/c2ccccc2)Cc2[nH]c(=O)c(C(=O)O)cc21 (centres unmarked) [CBK286933]
The viability at 28.5 h, 10 µM of the first is lower: 91.2% for the first, 92.9% for the second.

First: Nc1nc(Cl)c2ncn([C@@H]3O[C@H](CO)[C@H](O)C3O)c2n1 (some centres unmarked) [CBK201291]
Second: CCOC(=O)c1ncoc1-c1ccc(Cl)cc1Cl [CBK020578]
The viability at 28.5 h, 10 µM of the first is lower: 81% for the first, 90.2% for the second.

Compared with `CC(NC(=O)CCCC(=O)c1cccs1)c1cccc2ccccc12` (centres unmarked) [CBK297748], `O=C(Nc1ccc(Cl)cc1)Nc1cccc(C(=O)O)c1` [CBK269404] is lower in viability at 28.5 h, 10 µM: 105% for the first, 98.7% for the second.

Compared with `COc1cc(CNc2nc(-c3ccc(C(C)(C)C)cc3)cn3ccnc23)cc(OC)c1OC` [CBK066615], `CN(C)c1ccc(-c2cn3ccnc3c(NC3CC3)n2)cc1` [CBK037894] is higher in viability at 28.5 h, 10 µM: 99.3% for the first, 103% for the second.

Going from `CCn1c(SCC(=O)NC2CCCCC2C)nnc1-c1cc2cccc(OC)c2o1` (centres unmarked) [CBK267148] to `COCCCn1c(=O)[nH]c2ncc(-c3cccc(NC(C)=O)c3)nc21` [CBK064433], the viability at 28.5 h, 10 µM rises from 89.5% to 97.5%.

First: CC(c1ccc(F)c(F)c1)N(C)C(=O)Cn1ncn(C)c1=O (centres unmarked) [CBK305083]
Second: CC(=O)Nc1c(O)nc(SCC(=O)Nc2ccc(Cl)cc2)[nH]c1=O [CBK266214]
The viability at 28.5 h, 10 µM of the first is lower: 80.2% for the first, 106% for the second.

Compared with `COc1ccc(OC)c(S(=O)(=O)N2CCC(C(=O)O)CC2)c1` [CBK266835], `Cc1ccc(/C=C/C(=O)O)cc1S(=O)(=O)NC1CCS(=O)(=O)C1` (centres unmarked) [CBK264409] is higher in viability at 28.5 h, 10 µM: 83.5% for the first, 96.1% for the second.

Compared with `CC(=O)c1ccc(N2CCN(Cc3cc(C(C)(C)C)c(O)c(C(C)(C)C)c3)CC2)cc1` [CBK261749], `CCNc1cc(-c2ccc(N3CCOCC3)cc2)ncn1` [CBK090876] is higher in viability at 28.5 h, 10 µM: 87.2% for the first, 115% for the second.

Going from `CC(C)c1cc(C(C)C)c(S(=O)(=O)n2cnc3c2c(=O)[nH]c(=O)n3C)c(C(C)C)c1` [CBK018772] to `Cc1cc2cc(CNCCCN3CCCC3=O)c(=O)[nH]c2cc1C` [CBK282296], the viability at 28.5 h, 10 µM falls from 107% to 81.4%.

Going from `COC(=O)c1ccsc1NS(=O)(=O)c1ccc(NC(C)=O)cc1` [CBK039063] to `CCOC(=O)c1ccc(NS(=O)(=O)c2cc(Cl)ccc2Cl)cc1` [CBK077746], the viability at 28.5 h, 10 µM rises from 87.7% to 88.4%.

Going from `CC1(C)NC(=O)N(CC(O)CN2CCCC2)C1=O` (centres unmarked) [CBK264558] to `CC1CCC2(CC1)NC(=O)N(Cc1csc(-c3ccco3)n1)C2=O` (centres unmarked) [CBK304279], the viability at 28.5 h, 10 µM rises from 96.3% to 98.6%.

Compared with `Nc1ncc(-c2cccc(O)c2)nc1NCc1ccco1` [CBK063675], `Cc1cccc(-c2ncc(C(=O)Nc3nccs3)cc2-c2ccco2)c1` [CBK037427] is lower in viability at 28.5 h, 10 µM: 92.1% for the first, 86.3% for the second.

Going from `COC(=O)[C@H]1CN(C(=O)c2ccccn2)C[C@@H]1c1ccc(F)cc1` [CBK283727] to `CC1CN(C(=O)NC2CC2)C(C)CN1CCCC(c1ccc(F)cc1)c1ccc(F)cc1` (centres unmarked) [CBK024927C], the viability at 28.5 h, 10 µM rises from 101% to 104%.

First: COc1ccc(OCC(=O)N2CCN(C3CCC(c4ccccc4)CC3)CC2)cc1 (centres unmarked) [CBK263459]
Second: CN(C)Cc1nc(C(=O)N2CCn3nc(C(O)C4CC4)cc3C2)cs1 (centres unmarked) [CBK307489]
The viability at 28.5 h, 10 µM of the first is lower: 97.7% for the first, 101% for the second.

Going from `CCCC/C=C/c1cncc(N2CCCC2CO)n1` (centres unmarked) [CBK065402] to `COc1ccc(C)cc1NC(=O)CN(c1ccc(F)cc1)S(=O)(=O)c1ccc(C)cc1` [CBK264122], the viability at 28.5 h, 10 µM rises from 91.8% to 101%.

Same assay, conditions: human, hela cells, % viability, bulk resorufin, single well

`c1cc2c(cc1-c1ccc3c(c1)OCO3)COC1(CCNCC1)O2` [CBK060925] showed a viability at 28.5 h, 10 µM of 95.9%.

— publication PMC12040169 (PLOS Biology, 2025)
